Results: US10792410B2, “Bioartificial liver” (Mayo Foundation for Medical Education and Research, priority 2009, dated 2020)

Assays:
TLR4 = TLR4 agonist activity of mouse serum, luciferase reporter in HEK293/Luc(+)/TLR4(+) cells; format: cell-based; conditions: mouse serum 6 hours after APAP 500 mg/kg vs 0 mg/kg sham controls, p<0.001
From the text: FIGS. 7(a)-7(c): (a) TLR4 Signaling Complex is found in many cell types. It can also be stably transfected into reporter cells to measure TLR4 agonist activity in vitro; (b) is a schematic representation of HEK293 cells which have been transfected with TLR4 complex and a luciferase reporter gene to measure TLR4 agonist activity in vitro. The HEK293/Luc(+)/TLR4(+) cells, used to measure TLR4 agonist activity in mouse serum in (c) are used to screen dog serum for TLR4 agonist activity; (c) TLR4 agonist activity was elevated in mouse blood after toxic exposure to APAP (500 vs 0 mg/kg). This in vitro assay is based on a luciferase reporter gene linked to NFκβ in HEK293 cells which responds to TLR4 activation. Only trace background activity was detected in HEK293 cells lacking the TLR4 complex, labeled TLR4(−), confirming specificity of the luciferase activity to TLR4.
Further evidence supporting TLR4 as a signaling molecule in the SIRS response to ALF is illustrated in FIG. 7. FIGS. 7a-b show the assay, as well as the TLR4 receptor complex, used in the study.
TLR4 agonist activity are measured by an in vitro assay using HEK293/Luc(+)/TLR4(+) cells (see, e.g., Akira S, Takeda K. Toll-like receptor signaling. Nat Rev Immunol 2004; 4:499-511). […] Luciferase reporter gene signal are quantified by TD-20/20 luminometer (Turner Designs, Sunnyvale, Calif.). […]

TLR4 − (Deficient) mice = assay: Toxin-induced liver injury in TLR4 − (deficient) mice; format: in vivo; conditions: n = 10/group
Method: (§1) The role of TLR4 in ALF and SIRS was studied. […] A similar protective effect of TLR4 deficiency was also observed when wild-type and TLR4 mutant mice were treated with acetaminophen (APAP) at 500 mg/kg—a dose which is highly toxic with 100% mortality in wild-type mice (Table 2). Systemic inflammation was confirmed in wild-type mice after both APAP and Dgal/LPS by rising blood levels of TNFα and neutrophil infiltration in their lungs at necropsy. In contrast, lung histology and systemic levels of TNFα remained normal in TLR4 deficient mice. […] TLR4 deficient Kupffer cells may also explain the protective effects observed in TLR4 deficient mice after toxin exposure (FIG. 6c). […] Pretreatment with gadolinium chloride reduced the number of Kupffer cells in the liver by 48% (31±6 to 16±4 cells/HPF, p<0.001), and lowered peak ALT levels from 2458±2347 U/mL to 278±196 U/mL.

TLR4 + (Wild type) mice = assay: Toxin-induced liver injury in TLR4 + (wild type) mice; format: in vivo
Method: as §1

[1] = wild type mice, 6 hr, n = 10/group

| SMILES | TLR4 agonist activity in serum (TLR4) | ALT, TLR4 − (TLR4 − (Deficient) mice; 18 hr, APAP 500 mg/kg) | ALT, TLR4 + (TLR4 + (Wild type) mice; wild type mice, 18 hr, APAP 500 mg/kg, n = 10/group) | mortality (TLR4 + (Wild type) mice; wild-type mice, 500 mg/kg) | ALT, TLR4 − (TLR4 − (Deficient) mice; 6 hr) | TUNEL, TLR4 − (TLR4 − (Deficient) mice; 6 hr) | ALT, TLR4 + (TLR4 + (Wild type) mice; [1]) | TUNEL, TLR4 + (TLR4 + (Wild type) mice; [1]) | number of Kupffer cells in the liver (TLR4 + (Wild type) mice; after pretreatment, 31±6 without) | reduction of the number of Kupffer cells in the liver (TLR4 + (Wild type) mice; pretreatment of wild-type mice, p<0.001) |
| --- | --- | --- | --- | --- | --- | --- | --- | --- | --- | --- |
| CC(=O)Nc1ccc(O)cc1 [APAP, acetaminophen] | high levels of TLR4 agonist activity | 4810 ± 4045 U/mL | 9054 ± 4793 U/mL | 100% |  |  |  |  |  |  |
| N[C@H]1C(O)O[C@H](CO)[C@H](O)[C@@H]1O (stereo partly drawn) [DGal alone, D-galactosamine] |  |  |  |  | 54 ± 18 U/mL | <1 +cells/HPF | 43 ± 9 U/mL | <1 +cells/HPF |  |  |
| [Cl][Gd]([Cl])[Cl] [gadolinium chloride] |  |  |  |  |  |  | 278±196 U/mL |  | 16±4 cells/HPF | 48% |
